Activity calls are given as the source filed them. The calls are words filed in the database; no cut-off is given here.

The test system of one data set is Candida albicans. Nature of the data set: Antibiofilm activity against Candida albicans 90028 assessed as increasing in cell killing by XTT assay. The class given is functional. (In general: Formazan colour is commonly taken as a measure of viable cells.)
Data set [1] can be described thus: Drug uptake in Galleria mellonella larvae assessed as increase in fluorescence between cell wall and muscle layer measured after 2 hrs by fluorescence assay. The class given is ADME.

For `C[C@@H]1[C@H](O)[C@@H](C)/C=C/C=C/C=C/C=C/C=C/C=C/C=C/[C@H](O[C@@H]2O[C@H](C)[C@@H](O)[C@H](N)[C@@H]2O)C[C@@H]2O[C@](O)(C[C@@H](O)C[C@@H](O)[C@H](O)CC[C@@H](O)C[C@@H](O)CC(=O)O[C@H]1C)C[C@H](O)[C@H]2C(=O)O`, the result with Candida albicans was Active. In the case of `O=Cc1ccc(C2=C3C=CC=[N+]3[B-](F)(F)n3cccc32)cc1`, the Drug uptake result in data set [1] was “Active”.

For the origin of these results see ChEMBL document CHEMBL4680208, “Sulfone derivatives enter the cytoplasm of Candida albicans sessile cells” (Eur J Med Chem, 2020).
